A value given as a limit tells only on which side of the number the result lay.

Series [1] deals with PC3 (prostate cancer). In words: SRB cytotoxicity assay, PC3. The format is cell-based. To be noted: Homo sapiens, 48 h incubation, mean ± SEM of 3 independent experiments. The source says: (§1) Three human cancer cell lines: colon cancer (SW620), prostate cancer (PC3), and lung cancer (NCI-H23) were used for sceening the cytotoxicity of the compounds. The cancer cells were purchased from American Type Culture Collection (Manassas, VA, USA). Other reagents/media for cell culture were obtained from GIBCO (Grand Island, New York, USA). The testing cancer cells were culture in Dulbecco’s Modified Eagle Medium until confluence. Then, they were trypsinized and suspended at the level of 3 × 10^4 cells/mL of cell culture medium. On day 0, cancer cells were seeded at a volume of 180 µL/well of 96-well plates and incubated for 24 h at 37 °C in a 5% CO2 incubator. On day 1, 20 µL of various concentrations of testing compounds were added to each well of the 96-well plates. Chemicals were dissolved in dimethyl sulfoxide (DMSO, stock) and diluted in culture medium (1% DMSO) before adding to the culture. After 48 h incubation, the sulforhodamine B assay was used for cell density determination with slight modifications[22]–[26]. The Probits were used for the calculation of IC50 values. The reported IC50 were the averages of three independent screening (SD ≤ 10%)[27].
(§2) Two series of compounds synthesized (4a–p and 5a–f) were evaluated for their cytotoxicity against three human cancer cell lines, including SW620 (colon cancer), PC3 (prostate cancer), NCI-H23 (lung cancer), using SRB method as described previously[22] with slight modifications[23]–[26].
On the technique in general: The SRB assay estimates cell density from bound dye.

In series [2] the test system is SW620 (colon cancer). As to the kind of experiment: SRB cytotoxicity assay, SW620. The format is cell-based. Conditions: Homo sapiens, SW-620, 48 h incubation, mean ± SEM of 3 independent experiments.
Excerpt: as §1, §2

The subject of series [3] is NCI-H23 (lung cancer). In words: SRB cytotoxicity assay, NCI-H23. To be noted: Homo sapiens, 48 h incubation, mean ± SEM of 3 independent experiments. The format is cell-based.
Excerpt: as §1, §2

A short description of series [4]: Cytotoxicity on normal mesenchymal stem cells. To be noted: human bone marrow-derived mesenchymal stem cells; mean ± SEM; read-out: Cytotoxicity (IC50) MSCs. The format is cell-based. The protocol: Overally, 5-fluorinated compounds (4i–p and 5d–f) were slightly more cytotoxic than non-fluorinated ones (4a–h, 5a–c). For compounds in series 4a–p, it was observed that, electron-releasing substituents (–OCH3, OH) were generally better than electron-withdrawing groups (–Cl) for cytotoxicity. Especially, compounds with 2-OH substituents produced the best cytotoxicity. The addition of either 4-OCH3 or 3-allyl groups further enhanced cytotoxicity of the related compounds (4g, 4h and 4o, 4p).

The term IC50 denotes the midpoint of a concentration-inhibition curve. In general, melting point refers to the temperature of the solid-liquid transition. In turn, `O=C(CN1C(=O)Cc2cc(F)ccc21)N/N=C/c1ccccc1` [Compound 4i, (E)-N'-Benzylidene-2-(5-fluoro-2-oxoindolin-1-yl)acetohydrazide] yielded a melting point of 173 to 174 °C. This compound registered an IC50 in series [1] of 8.56 ± 0.52 µM. The compound also came in with a 50% inhibitory concentration (IC50) in series [2] of 9.54 ± 0.74 µM. For the same compound, half-maximal inhibition in series [3] (IC50) required 8.44 ± 0.67 µM. Besides, in series [4], the IC50 was more than 30 µM.
The matching figures for `O=C(CN1C(=O)Cc2ccccc21)N/N=C/c1ccc(Cl)cc1` [Compound 4d, (E)-N'-(4-Chlorobenzylidene)-2-(2-oxoindolin-1-yl)acetohydrazide]: 185 to 187 °C, 17.4 ± 1.34 µM, 16.3 ± 1.21 µM, 15.6 ± 1.43 µM and more than 30 µM.
The matching figures for `O=C(CN1C(=O)Cc2ccccc21)N/N=C/c1ccccc1` [Compound 4a, (E)-N'-Benzylidene-2-(2-oxoindolin-1-yl)acetohydrazide]: 167 to 168 °C, 12.2 ± 0.99 µM, 10.1 ± 0.91 µM, 10.4 ± 0.87 µM and more than 30 µM.
Consider `O=C(CN1C(=O)Cc2cc(F)ccc21)N/N=C1\C(=O)Nc2ccc(Cl)cc21` [Compound 5e, (Z)-N'-(5-Chloro-2-oxoindolin-3-ylidene)-2-(5-fluoro-2-oxoindolin-1-yl)acetohydrazide], for which the melting point lay within 221 to 222 °C. In series [1], this compound had a 50% inhibitory concentration (IC50) of 14.7 ± 1.71 µM. This compound also displayed an IC50 in series [2] of 15.3 ± 1.5 µM. Besides, 15.5 ± 1.36 µM corresponded to half-maximal inhibition in series [3] (IC50). For the same compound, the IC50 in series [4] was more than 30 µM.
The matching figures for `Cc1ccc2c(c1)/C(=N/NC(=O)CN1C(=O)Cc3cc(F)ccc31)C(=O)N2` [Compound 5f, (Z)-2-(5-Fluoro-2-oxoindolin-1-yl)-N'-(5-methyl-2-oxoindolin-3-ylidene)acetohydrazide]: 217 to 218 °C, 15.3 ± 1.7 µM, 12.7 ± 1.22 µM, 14.9 ± 1.83 µM and more than 30 µM.
In turn, `O=C(CN1C(=O)Cc2cc(F)ccc21)N/N=C/c1ccc(Cl)cc1` [Compound 4l, (E)-N'-(4-Chlorobenzylidene)-2-(5-fluoro-2-oxoindolin-1-yl)acetohydrazide] had a melting point of 191 to 192 °C. In addition, inhibition in series [1] was half-maximal at 17.8 ± 1.58 µM (IC50). Moreover, in series [2], the IC50 amounted to 14.3 ± 1.21 µM. This compound yielded a half-maximal inhibitory concentration (IC50) in series [3] of 16.4 ± 1.77 µM. Besides, the half-maximal inhibitory concentration (IC50) in series [4] is more than 30 µM.
Regarding `COc1ccc(/C=N/NC(=O)CN2C(=O)Cc3ccccc32)c(O)c1` [Compound 4g, (E)-N'-(2-Hydroxy-4-methoxybenzylidene)-2-(2-oxoindolin-1-yl)acetohydrazide], the melting point was in the range of 177 to 178 °C. Inhibition in series [1] was half-maximal at 4.32 ± 0.34 µM (IC50). For the same compound, half-maximal inhibition in series [2] (IC50) was put at 3.34 ± 0.31 µM. In series [3], 2.59 ± 0.21 µM corresponded to half-maximal inhibition (IC50). In series [4], the 50% inhibitory concentration (IC50) amounted to 15.5 ± 0.64 µM.
On the same counts, the results for `O=C(CN1C(=O)Cc2ccccc21)N/N=C1\C(=O)Nc2ccccc21` [Compound 5a, (Z)-2-(2-Oxoindolin-1-yl)-N'-(2-oxoindolin-3-ylidene)acetohydrazide] are 191 to 192 °C, 14.3 ± 1.21 µM, 16.4 ± 1.05 µM, 15.3 ± 1.32 µM and more than 30 µM.
On the same counts, the results for `O=C(CN1C(=O)Cc2cc(F)ccc21)N/N=C/c1cccc(Cl)c1` [Compound 4k, (E)-N'-(3-Chlorobenzylidene)-2-(5-fluoro-2-oxoindolin-1-yl)acetohydrazide] are 187 to 188 °C, 16.4 ± 1.56 µM, 16.4 ± 1.19 µM, 17.4 ± 1.54 µM and more than 30 µM.
The matching figures for `Cc1ccc2c(c1)/C(=N/NC(=O)CN1C(=O)Cc3ccccc31)C(=O)N2` [Compound 5c, (Z)-N'-(5-Methyl-2-oxoindolin-3-ylidene)-2-(2-oxoindolin-1-yl)acetohydrazide]: 198 to 199 °C, 19.6 ± 2.01 µM, 17.6 ± 1.32 µM, 18.4 ± 1.87 µM and more than 30 µM.
On to `COc1ccc(/C=N/NC(=O)CN2C(=O)Cc3cc(F)ccc32)cc1` [Compound 4m, (E)-N'-(4-Methoxybenzylidene)-2-(5-fluoro-2-oxoindolin-1-yl)acetohydrazide], for which the melting point lay within 175 to 176 °C. This compound also had an IC50 in series [1] of 7.33 ± 0.42 µM. In series [2], this compound showed an IC50 of 7.52 ± 0.63 µM. Further, inhibition in series [3] was half-maximal at 7.43 ± 0.56 µM (IC50). The IC50 in series [4] was more than 30 µM.
On the same counts, the results for `O=C(CN1C(=O)Cc2cc(F)ccc21)N/N=C1\C(=O)Nc2ccccc21` [Compound 5d, (Z)-2-(5-Fluoro-2-oxoindolin-1-yl)-N'-(2-oxoindolin-3-ylidene)acetohydrazide] are 215 to 216 °C, 14.6 ± 1.27 µM, 12.4 ± 1.21 µM, 13.6 ± 1.31 µM and more than 30 µM.
On the same counts, the results for `COc1ccc(/C=N/NC(=O)CN2C(=O)Cc3ccccc32)cc1` [Compound 4e, (E)-N'-(4-Methoxybenzylidene)-2-(2-oxoindolin-1-yl)acetohydrazide] are 168 to 169 °C, 7.43 ± 0.45 µM, 9.01 ± 0.74 µM, 8.72 ± 0.33 µM and more than 30 µM.
The matching figures for `O=C(CN1C(=O)Cc2ccccc21)N/N=C/c1ccccc1Cl` [Compound 4b, (E)-N'-(2-Chlorobenzylidene)-2-(2-oxoindolin-1-yl)acetohydrazide]: 179 to 181 °C, 8.72 ± 0.71 µM, 9.91 ± 0.76 µM, 8.34 ± 0.52 µM and more than 30 µM.
For `O=C(CN1C(=O)Cc2cc(F)ccc21)N/N=C/c1ccccc1Cl` [Compound 4j, (E)-N'-(2-Chlorobenzylidene)-2-(5-fluoro-2-oxoindolin-1-yl)acetohydrazide], the melting point was in the range of 185 to 186 °C. This compound yielded an IC50 in series [1] of 8.43 ± 0.59 µM. In addition, in series [2], the half-maximal inhibitory concentration (IC50) was 7.56 ± 0.57 µM. It took 8 ± 0.98 µM to reach half-maximal inhibition in series [3] (IC50). Moreover, the IC50 in series [4] is more than 30 µM.
The matching figures for `O=C(CN1C(=O)Cc2ccccc21)N/N=C1\C(=O)Nc2ccc(Cl)cc21` [Compound 5b, (Z)-N'-(5-Chloro-2-oxoindolin-3-ylidene)-2-(2-oxoindolin-1-yl)acetohydrazide]: 201 to 202 °C, 18.4 ± 1.53 µM, 17.4 ± 1.43 µM, 16.5 ± 1.33 µM and more than 30 µM.
On the same counts, the results for `O=C(CN1C(=O)Cc2ccccc21)N/N=C/c1cccc(Cl)c1` [Compound 4c, (E)-N'-(3-Chlorobenzylidene)-2-(2-oxoindolin-1-yl)acetohydrazide] are 181 to 182 °C, 14.2 ± 1 µM, 15.3 ± 1.01 µM, 13.5 ± 1.11 µM and more than 30 µM.

Values taken from article PMC8861050, “Design, synthesis and evaluation of novel 2-oxoindoline-based acetohydrazides as antitumor agents” (Scientific Reports, 2022).
